From patent US20260217701A1, “SELECTIVE BET INHIBITORS AND USES THEREOF” (Tay Therapeutics Limited, priority 2022, published 2026)
Values joined by “and” are separate entries in the source; they are usually repeats but may differ in a detail not shown here. Equal values may be shown once.

Test system: imiquimod-induced psoriasis
Experiment: Imiquimod-induced psoriasis model
Format: in vivo, mice
Conditions: for PASI Scores / Number Licking / Number Licking + Scratching / Number Scratching / Distance Traveled / Number Rearings: individual animals; for Distance Traveled / Number Rearings: behavioral evaluation
Procedure, shortened: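 Psoriasis-like dermatitis induced in mice by daily dorsal imiquimod cream (Days 1–14); dosing with Compound A (5% DMSO/40% PEG-400/55% saline vehicle) began Day 8. Read-outs: summed 0–4 scores for erythema, induration and peeling daily to Day 15, plus terminal spleen ratio, behaviour and serum cytokines.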

[1] = IMI-psoriasis model, behavioral evaluation D15, 1 mg/kg
[2] = IMI-psoriasis model, behavioral evaluation D15, 3 mg/kg
[3] = IMI-psoriasis model, behavioral evaluation D15, 10 mg/kg

Cn1cc(-c2ccccc2)c(-c2cn(C)c(=O)c3[nH]c(-c4cnn(C(F)(F)F)c4)cc23)cc1=O [Compound A, 6-methyl-4-(1-methyl-2-oxo-5-phenyl-1,2-dihydropyridin-4-yl)-2-(1-(trifluoromethyl)-1H-pyrazol-4-yl)-1,6-dihydro-7H-pyrrolo[2,3-c]pyridin-7-one]
PASI Scores (IMI + Compound A 1 mg/kg, D12, 1 mg/kg): 6 and 4 (4×) and 5 (2×) and 3 | PASI Scores (IMI + Compound A 1 mg/kg, D13, 1 mg/kg): 3 (4×) and 2 (2×) and 4 and 5 | PASI Scores (IMI + Compound A 1 mg/kg, D14, 1 mg/kg): 1 (2×) and 2 (3×) and 3 (3×) | PASI Scores (IMI + Compound A 1 mg/kg, D15, 1 mg/kg): 1 (5×) and 2 (2×) and 0 | PASI Scores (IMI + Compound A 3 mg/kg, D8 (day treatment started), 3 mg/kg): 8 and 6 and 7 and 5 and 9 | PASI Scores (IMI + Compound A 3 mg/kg, D9, 3 mg/kg): 8 (3×) and 5 and 6 | PASI Scores (IMI + Compound A 3 mg/kg, D10, 3 mg/kg): 6 and 7 and 4 and 5 (2×) | PASI Scores (IMI + Compound A 3 mg/kg, D11, 3 mg/kg): 4 (2×) and 3 (2×) and 5 | PASI Scores (IMI + Compound A 3 mg/kg, D12, 3 mg/kg): 3 and 4 and 2 and 5 | PASI Scores (IMI + Compound A 3 mg/kg, D13, 3 mg/kg): 2 (3×) and 0 | PASI Scores (IMI + Compound A 3 mg/kg, D14, 3 mg/kg): 2 and 0 (2×) and 1 | PASI Scores (IMI + Compound A 3 mg/kg, D15, 3 mg/kg): 1 (2×) and 0 (2×) | Use Enrichment D1 (IMI-psoriasis model, D1, 1 mg/kg, per cage (two animals)): 4.0 | Use Enrichment D1 (IMI-psoriasis model, D1, 3 mg/kg, per cage (two animals)): 4.0 and 3.5 | Use Enrichment D1 (IMI-psoriasis model, D1, 10 mg/kg, per cage (two animals)): 4.0 | Use Enrichment D8 (IMI-psoriasis model, D8, 1 mg/kg, per cage (two animals)): 1.0 and 1.5 | Use Enrichment D10 (IMI-psoriasis model, D10, 1 mg/kg, per cage (two animals)): 2.5 and 3.5 and 2.0 | Use Enrichment D10 (IMI-psoriasis model, D10, 3 mg/kg, per cage (two animals)): 2.0 and 3.0 | Use Enrichment D10 (IMI-psoriasis model, D10, 10 mg/kg, per cage (two animals)): 3.0 and 4.0 | Use Enrichment D11 (IMI-psoriasis model, D11, 1 mg/kg, per cage (two animals)): 3.0 and 4.0 and 2.0 | Use Enrichment D11 (IMI-psoriasis model, D11, 3 mg/kg, per cage (two animals)): 3.0 and 4.0 | Use Enrichment D11 (IMI-psoriasis model, D11, 10 mg/kg, per cage (two animals)): 3.0 and 4.0 | Use Enrichment D12 (IMI-psoriasis model, D12, 1 mg/kg, per cage (two animals)): 2.0 and 2.5 and 4.0 | Use Enrichment D12 (IMI-psoriasis model, D12, 3 mg/kg, per cage (two animals)): 3.0 | Use Enrichment D12 (IMI-psoriasis model, D12, 10 mg/kg, per cage (two animals)): 2.0 and 4.0 and 3.0 | Use Enrichment D13 (IMI-psoriasis model, D13, 1 mg/kg, per cage (two animals)): 4.0 | Use Enrichment D13 (IMI-psoriasis model, D13, 3 mg/kg, per cage (two animals)): 4.0 | Use Enrichment D13 (IMI-psoriasis model, D13, 10 mg/kg, per cage (two animals)): 4.0 | Use Enrichment D14 (IMI-psoriasis model, D14, 1 mg/kg, per cage (two animals)): 4.0 | Use Enrichment D14 (IMI-psoriasis model, D14, 3 mg/kg, per cage (two animals)): 4.0 | Use Enrichment D14 (IMI-psoriasis model, D14, 10 mg/kg, per cage (two animals)): 4.0 | Use Enrichment D15 (IMI-psoriasis model, D15, 1 mg/kg, per cage (two animals)): 4.0 | Use Enrichment D15 (IMI-psoriasis model, D15, 3 mg/kg, per cage (two animals)): 4.0 | Use Enrichment D15 (IMI-psoriasis model, D15, 10 mg/kg, per cage (two animals)): 4.0 | Number Licking [1]: 3 (2×) and 5 and 1 and 4 and 2 (2×) and 0 | Number Licking + Scratching [1]: 3 (2×) and 5 (2×) and 8 and 2 (2×) and 0 | Number Scratching [1]: 0 (6×) and 7 and 1 | Number Licking [2]: 3 and 5 and 1 (3×) and 4 (2×) | Number Licking + Scratching [2]: 3 and 5 and 1 (3×) and 4 (2×) | Number Scratching [2]: 0 | Number Licking [3]: 2 (4×) and 7 and 1 and 4 and 5 | Number Licking + Scratching [3]: 3 and 11 and 2 (3×) and 4 (2×) and 5 | Number Scratching [3]: 1 (2×) and 4 and 0 (4×) and 2 | Distance Traveled (IMI-psoriasis model, 1 mg/kg): 18 m and 11 m and 14 m (2×) and 12 m and 16 m (2×) and 4 m | Number Rearings (IMI-psoriasis model, 1 mg/kg): 42 and 52 and 50 and 55 and 35 and 78 and 46 and 4 | Distance Traveled (IMI-psoriasis model, 3 mg/kg): 12 m (3×) and 13 m (2×) and 8 m and 9 m | Number Rearings (IMI-psoriasis model, 3 mg/kg): 41 and 43 and 34 (2×) and 24 and 8 and 47 | Distance Traveled (IMI-psoriasis model, 10 mg/kg): 4 m and 13 m (2×) and 10 m and 8 m and 7 m and 6 m and 11 m | Number Rearings (IMI-psoriasis model, 10 mg/kg): 6 and 39 and 38 and 46 and 11 and 21 and 13 and 55 | Use Enrichment Mean D1-D8 (IMI-psoriasis model, mean D1-D8, 1 mg/kg, per cage (two animals)): 2.50 and 2.75 | Use Enrichment Mean D1-D8 (IMI-psoriasis model, mean D1-D8, 3 mg/kg, per cage (two animals)): 2.50 and 2.00 and 2.25 | Use Enrichment Mean D1-D8 (IMI-psoriasis model, mean D1-D8, 10 mg/kg, per cage (two animals)): 2.50 and 2.75 and 2.00 | Use Enrichment Mean D8-D15 (IMI-psoriasis model, mean D8-D15, 1 mg/kg, per cage (two animals)): 3.00 and 3.36 and 3.14 | Use Enrichment Mean D8-D15 (IMI-psoriasis model, mean D8-D15, 3 mg/kg, per cage (two animals)): 3.00 and 3.14 and 2.86
